#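 96-well plates; 48 h exposure; 5 concentrations. Endpoints by linear interpolation between flanking doses. Not reached: highest tested concentration assigned. GI50: concentration for 50% inhibition of growth. TGI: total growth inhibition.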
# Key:
# Assay in all cases: NCI tumour cell line growth inhibition, 48 h
# [1] = tested on: A549 NSCLC
# [2] = tested on: MCF7 breast
# [3] = tested on: RXF 393 renal
# [4] = tested on: NCI-H23 lung
# [5] = tested on: ACHN renal
# [6] = tested on: A498 renal
# [7] = tested on: NCI-H460 lung
# [8] = tested on: KM12 colon
# [9] = tested on: SR leukemia
# [10] = tested on: LOX IMVI melanoma
# [11] = tested on: MDA-MB-435
# [12] = tested on: U251 CNS
# [13] = tested on: DU-145 prostate
# [14] = tested on: TK-10 renal
# [15] = tested on: K-562 leukemia
# [16] = tested on: SK-MEL-5 melanoma
# [17] = tested on: NCI/ADR-RES ovarian
# [18] = tested on: OVCAR-8 ovarian
# [19] = tested on: MDA-MB-231 breast
# [20] = tested on: IGROV1 ovarian
# [21] = tested on: SN12C renal
# [22] = tested on: OVCAR-5 ovarian
# [23] = tested on: T-47D breast
# [24] = tested on: SNB-19 CNS
# [25] = tested on: NCI-H226 lung
# [26] = tested on: SNB-75 CNS
# [27] = tested on: SF-268 CNS
# [28] = tested on: HCT-116 colon
# [29] = tested on: CCRF-CEM leukemia
# [30] = tested on: UO-31 renal
# [31] = tested on: HCT-15 colon
# [32] = tested on: HL-60(TB) leukemia
# [33] = tested on: UACC-257 melanoma
# [34] = tested on: UACC-62 melanoma
# [35] = tested on: OVCAR-4 ovarian
# [36] = tested on: SK-MEL-28 melanoma
# [37] = tested on: BT-549 breast
# [38] = tested on: HOP-62 NSCLC
# [39] = tested on: SK-OV-3 ovarian
# [40] = tested on: RPMI-8226 leukemia
# [41] = tested on: PC-3 prostate
# [42] = tested on: MOLT-4 leukemia
# [43] = tested on: MALME-3M melanoma
# [44] = tested on: SF-539 CNS
# [45] = tested on: HS 578T breast
# [46] = tested on: SF-295 CNS
# [47] = tested on: CAKI-1 renal
# [48] = tested on: EKVX NSCLC
# [49] = tested on: M14 melanoma
# [50] = tested on: MDA-MB-468 breast
# [51] = tested on: HOP-92 NSCLC
# [52] = tested on: 786-0 renal
# [53] = tested on: OVCAR-3 ovarian
# [54] = tested on: COLO 205 colon
# [55] = tested on: HCC-2998 colon
# [56] = tested on: SW-620 colon
# [57] = tested on: HT29 colon
# [58] = tested on: SK-MEL-2 melanoma
# [59] = tested on: NCI-H522 lung
smiles,measurement,setting,value
CC(C)NC(=O)c1cc(-c2ccc(NC(=O)Nc3ccc(N4CCN(C)CC4)c(C(F)(F)F)c3)cc2)nc2cccnc12,GI50,[1],6.5 µM
same,TGI,[1],12.8 µM
same,GI50,[2],0.397 µM
same,TGI,[2],2.79 µM
same,GI50,[3],1.07 µM
same,TGI,[3],2.89 µM
same,GI50,[4],2.23 µM
same,TGI,[4],4.44 µM
same,GI50,[5],2.03 µM
same,TGI,[5],3.74 µM
same,GI50,[6],13.5 µM
same,TGI,[6],19.3 µM
same,GI50,[7],2.11 µM
same,TGI,[7],4.04 µM
same,GI50,[8],2.43 µM
same,TGI,[8],5.12 µM
same,GI50,[9],2.29 µM
same,TGI,[9],7.45 µM
same,GI50,[10],1.95 µM
same,TGI,[10],3.62 µM
same,GI50,[11],1.94 µM
same,TGI,[11],3.88 µM
same,GI50,[12],1.74 µM
same,TGI,[12],3.55 µM
same,GI50,[13],2.18 µM
same,TGI,[13],4.15 µM
same,GI50,[14],2.24 µM
same,TGI,[14],4.18 µM
same,GI50,[15],2.79 µM
same,TGI,[15],33.4 µM
same,GI50,[16],2.07 µM
same,TGI,[16],3.76 µM
same,GI50,[17],3.29 µM
same,TGI,[17],9.35 µM
same,GI50,[18],2.16 µM
same,TGI,[18],4.81 µM
same,GI50,[19],0.82 µM
same,TGI,[19],2.03 µM
same,GI50,[20],1.74 µM
same,TGI,[20],3.55 µM
same,GI50,[21],1.81 µM
same,TGI,[21],3.53 µM
same,GI50,[22],1.98 µM
same,TGI,[22],3.81 µM
same,GI50,[23],1.71 µM
same,TGI,[23],31 µM
same,GI50,[24],2.09 µM
same,TGI,[24],4.75 µM
same,GI50,[25],6.13 µM
same,TGI,[25],14.8 µM
same,GI50,[26],0.657 µM
same,TGI,[26],4.94 µM
same,GI50,[27],6.09 µM
same,TGI,[27],16.8 µM
same,GI50,[28],2.06 µM
same,TGI,[28],3.92 µM
same,GI50,[29],0.539 µM
same,TGI,[29],3.82 µM
same,GI50,[30],1.76 µM
same,TGI,[30],3.39 µM
same,GI50,[31],2.1 µM
same,TGI,[31],4.2 µM
same,GI50,[32],0.572 µM
same,TGI,[32],3.18 µM
same,GI50,[33],2.09 µM
same,TGI,[33],4.2 µM
same,GI50,[34],2.11 µM
same,TGI,[34],4.13 µM
same,GI50,[35],2.21 µM
same,TGI,[35],5.18 µM
same,GI50,[36],1.98 µM
same,TGI,[36],3.68 µM
same,GI50,[37],1.37 µM
same,TGI,[37],6.31 µM
same,GI50,[38],2.24 µM
same,TGI,[38],4.73 µM
same,GI50,[39],4.85 µM
same,TGI,[39],16.2 µM
same,GI50,[40],2 µM
same,TGI,[40],7.82 µM
same,GI50,[41],1.82 µM
same,TGI,[41],4.81 µM
same,GI50,[42],1.05 µM
same,TGI,[42],4.19 µM
same,GI50,[43],1.65 µM
same,TGI,[43],3.32 µM
same,GI50,[44],1.51 µM
same,TGI,[44],3.06 µM
same,GI50,[45],1.36 µM
same,TGI,[45],7.5 µM
same,GI50,[46],1.83 µM
same,TGI,[46],3.57 µM
same,GI50,[47],1.96 µM
same,TGI,[47],3.74 µM
same,GI50,[48],2.19 µM
same,TGI,[48],4.3 µM
same,GI50,[49],2 µM
same,TGI,[49],4.13 µM
same,GI50,[50],0.801 µM
same,TGI,[50],2.29 µM
same,GI50,[51],0.98 µM
same,TGI,[51],2.94 µM
same,GI50,[52],1.65 µM
same,TGI,[52],3.34 µM
same,GI50,[53],1.91 µM
same,TGI,[53],3.94 µM
same,GI50,[54],2.37 µM
same,TGI,[54],5.56 µM
same,GI50,[55],2.09 µM
same,TGI,[55],3.96 µM
same,GI50,[56],1.79 µM
same,TGI,[56],3.74 µM
same,GI50,[57],1.95 µM
same,TGI,[57],3.98 µM
same,GI50,[58],2.72 µM
same,TGI,[58],6.5 µM
same,GI50,[59],2.01 µM
same,TGI,[59],4.02 µM

# Source: PubChem BioAssay (NCI)
